For assay [1], the system named is U-251. As to the kind of experiment: Antiproliferative activity against human U-251 cells after 48 hrs by MTT assay. Type of assay: functional, cell-based. The note with it: U-251, 48 h. On the technique in general: Tetrazolium assays rely on reduction of a dye to a coloured formazan, in cell work by metabolically active cells.
Assay [2] deals with A549. The assay is described as follows: Antiproliferative activity against human A549 cells after 48 hrs by MTT assay. Type of assay: functional, cell-based. The note with it: A549, 48 h.
The species entered for assay [3] is Sus scrofa. As to the kind of experiment: Inhibition of pig brain tubulin polymerization at 1 uM by spectrometric method relative to control. Type of assay: tissue-based.
The subject of assay [4] is A549. As to the kind of experiment: Cell cycle arrest in human A549 cells assessed as G2/M phase at 500 nM measured after 24 hrs by propidium iodide staining based flow cytometry analysis (reference value: 6.08%). Type of assay: functional. In general terms: In flow cytometry, cells or beads pass a laser one at a time.
Assay [5] deals with A549. The assay is described as follows: Cell cycle arrest in human A549 cells assessed as S phase at 500 nM measured after 24 hrs by propidium iodide staining based flow cytometry analysis (reference value: 14.78%). Type of assay: functional.
Assay [6] deals with A549. The assay is described as follows: Cell cycle arrest in human A549 cells assessed as G0/G1 phase at 50 nM measured after 24 hrs by propidium iodide staining based flow cytometry analysis (reference value: 79.14%). Type of assay: functional.
Assay [7] concerns A549. The assay is described as follows: Cell cycle arrest in human A549 cells assessed as G2/M phase at 50 nM measured after 24 hrs by propidium iodide staining based flow cytometry analysis (reference value: 6.08%). Type of assay: functional.
For assay [8], the system named is A549. The assay is described as follows: Cell cycle arrest in human A549 cells assessed as S phase at 50 nM measured after 24 hrs by propidium iodide staining based flow cytometry analysis (reference value: 14.78%). Type of assay: functional.
In assay [9] the test system is A549. As to the kind of experiment: Cell cycle arrest in human A549 cells assessed as G0/G1 phase at 200 nM measured after 24 hrs by propidium iodide staining based flow cytometry analysis (reference value: 79.14%). Type of assay: functional.
In assay [10] the test system is U-251. The assay is described as follows: Cell cycle arrest in human U-251 cells assessed as S phase at 200 nM measured after 24 hrs by propidium iodide staining based flow cytometry analysis (reference value: 18.23%). Type of assay: functional.
In assay [11] the test system is U-251. The assay is described as follows: Cell cycle arrest in human U-251 cells assessed as G2/M phase at 500 nM measured after 24 hrs by propidium iodide staining based flow cytometry analysis (reference value: 14.43%). Type of assay: functional.
Assay [12] relates to U-251. The assay is described as follows: Cell cycle arrest in human U-251 cells assessed as S phase at 500 nM measured after 24 hrs by propidium iodide staining based flow cytometry analysis (reference value: 18.23%). Type of assay: functional.
In assay [13] the test system is U-251. As to the kind of experiment: Cell cycle arrest in human U-251 cells assessed as S phase at 1000 nM measured after 24 hrs by propidium iodide staining based flow cytometry analysis (reference value: 18.23%). Type of assay: functional.
The subject of assay [14] is A549. As to the kind of experiment: Induction of apoptosis in human A549 cells assessed as increase in necrotic cells at 50 nM measured after 24 hrs by PI/FITC analysis (reference value: 0.365%). Type of assay: functional.
Assay [15] concerns A549. As to the kind of experiment: Induction of apoptosis in human A549 cells assessed as increase in viable cells at 200 nM measured after 24 hrs by PI/FITC analysis (reference value: 98.4%). Type of assay: functional.
Assay [16] deals with U-251. As to the kind of experiment: Induction of apoptosis in human U-251 cells assessed as increase in necrotic cells at 200 nM measured after 24 hrs by PI/FITC analysis (reference value: 0.301%). Type of assay: functional.
Assay [17] relates to U-251. As to the kind of experiment: Induction of apoptosis in human U-251 cells assessed as increase in necrotic cells at 500 nM measured after 24 hrs by PI/FITC analysis (reference value: 0.301%). Type of assay: functional.
In assay [18] the test system is U-251. The assay is described as follows: Induction of apoptosis in human U-251 cells assessed as increase in necrotic cells at 1000 nM measured after 24 hrs by PI/FITC analysis (reference value: 0.301%). Type of assay: functional.

What is called IC50 is the concentration needed to halve the response being measured. As a reminder, the inhibition is the change of the read-out against control, counted positive when it falls. Read a low inhibition as little suppression. Consider `COc1cc(-c2cccc3nc(-c4ccc5cc[nH]c5c4)oc23)cc(OC)c1OC`, for which the IC50 in assay [1] was determined as 300 nM; in assay [2], 55 nM. In [3], this compound registered an inhibition of 40%. Further, the Activity is 68.09% in assay [4]; 28.03% in assay [5]; 55.78% in assay [6]; 19.43% in assay [7]; 24.79% in assay [8]; 15.24% in [9]. The Activity in assay [10] was determined as 18.32%; in assay [11] it was 42.9%; in assay [12], 22.47%; in assay [13], 14.77%; in [14], 0.603%; in [15], 79.8%. Besides, the Activity in assay [16] was found to be 2.01%; in assay [17], 2.92%; in [18], 1.66%.

These data come from ChEMBL document CHEMBL4831506, “Discovery of novel trimethoxyphenylbenzo[d]oxazoles as dual tubulin/PDE4 inhibitors capable of inducing apoptosis at G2/M phase arrest in glioma and lung cancer cells” (Eur J Med Chem, 2021).
